Values of other authors in US11992483B2, “Emulsions for local anesthetics” (Cali Pharmaceuticals, LLC, priority 2021, dated 2024).
Counter-ions that a name gives are not always drawn. Like-named read-outs stand apart in the source and are kept apart here.

Settings: for log P: octanol/water

| solubility in water | log P | P (octanol:water partition coefficient) | log P (hydrochloride) | P (octanol:water partition coefficient) (hydrochloride) | Compound |
| --- | --- | --- | --- | --- | --- |
| insoluble in water | 2.9 | 794 |  |  | CCCN1CCCC[C@H]1C(=O)Nc1c(C)cccc1C [ropivacaine free base, ropivacaine] |
|  |  |  | 1.1 | 14 | CCCN1CCCC[C@H]1C(=O)Nc1c(C)cccc1C [ropivacaine hydrochloride] |
